Results from a compilation of properties of binary mixtures (doi:10.1021/acs.jced.3c00247).

Test: xn = mol fraction of the nth substance listed
Conditions: 100 kPa

O + C[C@H](N)C(=O)[O-].C[N+](C)(C)CCO
x2 = 0
Conditions	viscosity [mPa·s]
288.09 K	1.08
289.33 K	1.05
290.56 K	1.02
291.75 K	0.98
292.93 K	0.96
294.1 K	0.93
295.28 K	0.9
297.64 K	0.86
298.81 K	0.84
301.17 K	0.8
302.34 K	0.78
303.52 K	0.77
304.69 K	0.75
305.87 K	0.74
308.22 K	0.71

C[C@H](N)C(=O)[O-].C[N+](C)(C)CCO + O
Conditions	viscosity [mPa·s]
287.92 K, x1 = 0.097	10.7
287.94 K, x1 = 0.198	60
288 K, x1 = 0.3748	345
288 K, x1 = 0.4948	710
288.02 K, x1 = 0.5975	1059
288.02 K, x1 = 0.8993	3070
288.06 K, x1 = 0.7994	2139
288.08 K, x1 = 0.692	1634
289.2 K, x1 = 0.198	57
289.22 K, x1 = 0.097	10.2
289.22 K, x1 = 0.3748	328
289.23 K, x1 = 0.2939	166
289.24 K, x1 = 0.4948	660
289.26 K, x1 = 0.8993	2817
289.29 K, x1 = 0.7994	1961
290.21 K, x1 = 1	4300
290.48 K, x1 = 0.198	53
290.48 K, x1 = 0.3748	300
290.5 K, x1 = 0.097	9.6
290.5 K, x1 = 0.4948	600
290.5 K, x1 = 0.5975	880
290.52 K, x1 = 0.8993	2510
290.54 K, x1 = 0.692	1293
291.71 K, x1 = 0.2939	140
291.71 K, x1 = 0.3748	274
291.72 K, x1 = 0.097	9.2
291.72 K, x1 = 0.198	50
291.72 K, x1 = 0.4948	540
291.72 K, x1 = 0.5975	790
291.73 K, x1 = 0.7994	1562
291.73 K, x1 = 0.8993	2231
291.74 K, x1 = 0.692	1150
292.02 K, x1 = 1	3052
292.32 K, x1 = 1	3520
292.91 K, x1 = 0.198	46
292.91 K, x1 = 0.2939	129
292.91 K, x1 = 0.3748	250
292.92 K, x1 = 0.7994	1393
292.92 K, x1 = 0.8993	1984
294.08 K, x1 = 1	2544
294.1 K, x1 = 0.198	43
294.1 K, x1 = 0.2939	119
294.1 K, x1 = 0.3748	230
294.1 K, x1 = 0.5975	650
294.1 K, x1 = 0.8993	1775
294.41 K, x1 = 1	2896
295.27 K, x1 = 0.097	8
295.27 K, x1 = 0.198	40.8
295.27 K, x1 = 0.2939	111
295.27 K, x1 = 0.3748	212
295.27 K, x1 = 0.4948	410
295.27 K, x1 = 0.5975	590
295.27 K, x1 = 0.692	840
295.27 K, x1 = 0.8993	1599
296.14 K, x1 = 1	2140
296.45 K, x1 = 0.097	7.7
296.45 K, x1 = 0.198	38.3
296.45 K, x1 = 0.2939	103
296.45 K, x1 = 0.3748	195
296.45 K, x1 = 0.5975	540
296.45 K, x1 = 0.692	760
296.45 K, x1 = 0.8993	1438
296.48 K, x1 = 1	2402
297.63 K, x1 = 0.198	36.2
297.63 K, x1 = 0.2939	96
297.63 K, x1 = 0.3748	181
297.63 K, x1 = 0.4948	347
297.63 K, x1 = 0.5975	490
297.63 K, x1 = 0.692	700
297.63 K, x1 = 0.7994	920
297.63 K, x1 = 0.8993	1302
298.2 K, x1 = 1	1806
298.54 K, x1 = 1	2000
298.8 K, x1 = 0.5975	450
298.8 K, x1 = 0.8993	1183
298.81 K, x1 = 0.097	7.1
298.81 K, x1 = 0.198	34.3
298.81 K, x1 = 0.3748	168
298.81 K, x1 = 0.4948	320
298.81 K, x1 = 0.692	630
299.98 K, x1 = 0.198	32.3
299.98 K, x1 = 0.2939	84
299.98 K, x1 = 0.4948	294
299.98 K, x1 = 0.5975	410
299.98 K, x1 = 0.692	580
299.98 K, x1 = 0.7994	760
299.98 K, x1 = 0.8993	1071
300.61 K, x1 = 1	1681
301.16 K, x1 = 0.097	6.6
301.16 K, x1 = 0.198	30.6
301.16 K, x1 = 0.2939	79
301.16 K, x1 = 0.3748	145
301.16 K, x1 = 0.4948	271
301.16 K, x1 = 0.5975	379
301.16 K, x1 = 0.7994	690
301.16 K, x1 = 0.8993	970
302.33 K, x1 = 0.198	29
302.33 K, x1 = 0.2939	74
302.33 K, x1 = 0.4948	251
302.33 K, x1 = 0.5975	348
302.33 K, x1 = 0.692	480
302.33 K, x1 = 0.7994	630
302.33 K, x1 = 0.8993	890
302.34 K, x1 = 0.097	6.4
302.34 K, x1 = 1	1310
302.66 K, x1 = 1	1421
303.51 K, x1 = 0.097	6.2
303.51 K, x1 = 0.198	27.6
303.51 K, x1 = 0.2939	69
303.51 K, x1 = 0.4948	233
303.51 K, x1 = 0.5975	322
303.51 K, x1 = 0.692	440
303.51 K, x1 = 0.8993	810
304.41 K, x1 = 1	1119
304.69 K, x1 = 0.097	6
304.69 K, x1 = 0.198	26.2
304.69 K, x1 = 0.2939	65
304.69 K, x1 = 0.3748	117
304.69 K, x1 = 0.4948	216
304.69 K, x1 = 0.5975	297
304.69 K, x1 = 0.692	410
304.69 K, x1 = 0.7994	530
304.69 K, x1 = 0.8993	740
305.86 K, x1 = 0.198	24.9
305.86 K, x1 = 0.2939	61
305.86 K, x1 = 0.5975	274
305.86 K, x1 = 0.692	375
305.86 K, x1 = 0.7994	480
305.87 K, x1 = 0.097	5.7
306.48 K, x1 = 1	960
306.78 K, x1 = 1	1030
307.04 K, x1 = 0.097	5.6
307.04 K, x1 = 0.198	23.7
307.04 K, x1 = 0.2939	58
307.04 K, x1 = 0.4948	186
307.04 K, x1 = 0.692	347
307.04 K, x1 = 0.7994	440
308.21 K, x1 = 0.4948	173
308.21 K, x1 = 0.5975	236
308.21 K, x1 = 0.692	321
308.22 K, x1 = 0.097	5.4
308.22 K, x1 = 0.198	22.6
308.22 K, x1 = 0.2939	54
308.22 K, x1 = 0.3748	96
308.22 K, x1 = 0.7994	410
308.22 K, x1 = 0.8993	570
308.54 K, x1 = 1	830
308.84 K, x1 = 1	880
310.61 K, x1 = 1	720
310.9 K, x1 = 1	760
312.67 K, x1 = 1	630
312.95 K, x1 = 1	660
314.74 K, x1 = 1	550
315.01 K, x1 = 1	570
316.82 K, x1 = 1	480
317.07 K, x1 = 1	500
318.91 K, x1 = 1	420
319.13 K, x1 = 1	440
321.04 K, x1 = 1	374
321.19 K, x1 = 1	387
323.25 K, x1 = 1	342
